Data on two molecules can be found in article PMC4278187 (The Journal of General Physiology, 2015).

One may read the EC50 as the concentration needed to bring the measured effect to its halfway point. Higher therefore signals a less potent agent.

Experiment [1] addresses T1, ELIC (Erwinia chrysanthemi ligand-gated ion channel) (Dickeya chrysanthemi, UniProt P0C7B7).
T1 sequence (P0C7B7 1-321): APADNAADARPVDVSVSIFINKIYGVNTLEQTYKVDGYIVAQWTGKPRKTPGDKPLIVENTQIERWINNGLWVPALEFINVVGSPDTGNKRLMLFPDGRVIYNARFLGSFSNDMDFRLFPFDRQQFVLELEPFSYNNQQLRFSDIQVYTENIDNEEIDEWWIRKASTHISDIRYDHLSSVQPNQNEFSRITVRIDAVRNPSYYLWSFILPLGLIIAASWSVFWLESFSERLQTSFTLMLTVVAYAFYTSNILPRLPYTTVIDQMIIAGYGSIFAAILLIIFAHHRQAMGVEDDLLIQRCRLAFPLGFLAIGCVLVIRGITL
The experiment in a line: whole-cell patch clamp concentration-response in HEK293 cells. The experiment is classed as cell-based. A general note: The patch-clamp technique gives a direct electrical read-out from membranes.

Experiment [2] addresses T1, ELIC (Erwinia chrysanthemi ligand-gated ion channel). Kind of experiment: macroscopic patch-clamp currents. The experiment is classed as cell-based.

`CCCN` [propylamine] displayed a 50% effective concentration (EC50) in experiment [1] of 500 ± 100 µM. On to `NCCS` [cysteamine], for which the “macroscopic patch-clamp currents (data not shown)” value in experiment [2] is “in our macroscopic records, the rebound current (see below) was more prominent when responses were elicited by cysteamine”.
